In paper PMC10518257 (Nature Cancer, 2023):
Several values for one entry are separate records, joined by “and”; a condition that tells them apart may be missing. Equal values may be shown once.

Key:
HBECp53-EV cells = experiment: Growth inhibition (alamarBlue, 96 h); assay type: cell-based, human; conditions: for raw viability signal (Source Data Fig. 3b-c): HBEC-EV, replicate sets
[1] = system: ECLC5 luciferase cells implanted intracranially; experiment: Intracranial efficacy study; assay type: in vivo, NSG mice; conditions: Fig. 8e (middle panel) ECLC5 luminescence; 50 mg/kg BID
ECLC5B cells = experiment: Growth inhibition (alamarBlue, 96 h); assay type: cell-based, human; conditions: ECLC5B; for raw viability signal (Source Data Fig. 3b-c): replicates
Ba/F3-RET^M918T = experiment: Growth inhibition assay in Ba/F3 cells (CellTiter-Glo, 72 h); assay type: cell-based; conditions: Mus musculus, BaF3, 72 h, Ba/F3-RET^M918T, CellTiter-Glo, 72 h; read-out: GI50 value (Mean ± SD)
LUAD-0057BS1 cells = experiment: Growth inhibition (alamarBlue, 96 h); assay type: cell-based, human; conditions: for raw viability signal (Source Data Fig. 3b-c): LUAD-0057BS1, replicate sets
[2] = Animal weight of tumor-bearing mice

COc1cc2c(Nc3ccc(Br)cc3F)ncnc2cc1OCC1CCN(C)CC1 [Vandetanib]
raw viability signal (Source Data Fig. 3b-c) (HBECp53-EV cells; 0.01 nM): 25097.6 and 25887.6 and 17676.4
raw viability signal (Source Data Fig. 3b-c) (HBECp53-EV cells; 0.1 nM): 26759 and 26118.3 and 17425.7
raw viability signal (Source Data Fig. 3b-c) (HBECp53-EV cells; 1 nM): 23471.2 and 28489.7 and 18981.5
raw viability signal (Source Data Fig. 3b-c) (HBECp53-EV cells; 10 nM): 23607.2 and 26549.6 and 18321.2
raw viability signal (Source Data Fig. 3b-c) (HBECp53-EV cells; 100 nM): 25750 and 25003
raw viability signal (Source Data Fig. 3b-c) (HBECp53-EV cells; 1000 nM): 22139.5 and 31238.9 and 18759.8
raw viability signal (Source Data Fig. 3b-c) (HBECp53-EV cells; 10000 nM): 1428.02 and 2282.52 and 1103.83
IC50 (HBECp53-EV cells; Homo sapiens, read-out: IC50 for Inhibition of Growth (95% CI), HBECp53-EV, alamarBlue, 96 h): 3580 nM
Area Under Curve Mean [1]: -890991750
raw viability signal (Source Data Fig. 3b-c) (ECLC5B cells; 0.01 nM): 9731.41 and 6613.39 and 26019.7
raw viability signal (Source Data Fig. 3b-c) (ECLC5B cells; 0.1 nM): 10719.9 and 7303.21 and 26332.1
raw viability signal (Source Data Fig. 3b-c) (ECLC5B cells; 1 nM): 7568.32 and 25576
raw viability signal (Source Data Fig. 3b-c) (ECLC5B cells; 10 nM): 10376.5 and 7240.47 and 24146.6
raw viability signal (Source Data Fig. 3b-c) (ECLC5B cells; 100 nM): 8370.2 and 5534.52 and 20059.6
raw viability signal (Source Data Fig. 3b-c) (ECLC5B cells; 1000 nM): 1326.74 and 1175.68 and 3727.83
raw viability signal (Source Data Fig. 3b-c) (ECLC5B cells; 10000 nM): 1185.45 and 1144.21 and 2595.71
IC50 (ECLC5B cells; Homo sapiens, read-out: IC50 for Inhibition of Growth (95% CI), alamarBlue, 96 h): 248 nM
GI50 (Ba/F3-RET^M918T): 39.9 ± 15.2 nM
IC50 (LUAD-0057BS1 cells; Homo sapiens, read-out: IC50 for Inhibition of Growth (95% CI), LUAD-0057BS1, alamarBlue, 96 h): 363 nM
raw viability signal (Source Data Fig. 3b-c) (LUAD-0057BS1 cells; 0.01 nM): 17034.2 and 23597.8
raw viability signal (Source Data Fig. 3b-c) (LUAD-0057BS1 cells; 0.1 nM): 16283.3 and 21948.2
raw viability signal (Source Data Fig. 3b-c) (LUAD-0057BS1 cells; 1 nM): 16965.6 and 22300.3
raw viability signal (Source Data Fig. 3b-c) (LUAD-0057BS1 cells; 10 nM): 14389.1 and 16776.9 and 22078.9
raw viability signal (Source Data Fig. 3b-c) (LUAD-0057BS1 cells; 100 nM): 13528.1 and 13127 and 19841.4
raw viability signal (Source Data Fig. 3b-c) (LUAD-0057BS1 cells; 1000 nM): 5066.49 and 6132.7 and 5277.44
raw viability signal (Source Data Fig. 3b-c) (LUAD-0057BS1 cells; 10000 nM): 837.183 and 963.777 and 796.086
Animal Weight ([2]; ECLC5B xenograft, P = 0.01, animals killed early): significant weight loss
Animal Weight ([2]; ECLC5 Xenografts, 100 mg/kg QD, treatment day 7, individual animals, 100 mg/kg): 26 g and 24 g and 22 g (3×)
Animal Weight ([2]; ECLC5 Xenografts, 100 mg/kg QD, treatment day 11, individual animals, 100 mg/kg): 25 g and 23 g and 22 g (3×)
Animal Weight ([2]; ECLC5 Xenografts, 100 mg/kg QD, treatment day 14, individual animals, 100 mg/kg): 24 g and 22 g (2×) and 21 g (2×)
Animal Weight ([2]; ECLC5 Xenografts, 100 mg/kg QD, treatment day 19, individual animals, 100 mg/kg): 22 g (2×) and 21 g (3×)
Animal Weight ([2]; ECLC5 Xenografts, 100 mg/kg QD, treatment day 22, individual animals): 20 g
Animal Weight ([2]; ECLC5 Xenografts, 100 mg/kg QD, treatment day 25, individual animals): 20 g
Animal Weight ([2]; LUAD-0057AS1 PDX, 50 mg per kg QD, P = 0.0015): significant reduction in animal weight
Animal Weight ([2]; LUAD-0057AS1 PDX, 50 mg/kg QD, treatment day 0, individual animals, 50 mg/kg): 24 g (3×) and 23 g (3×) and 25 g (2×)
Animal Weight ([2]; LUAD-0057AS1 PDX, 50 mg/kg QD, treatment day 3, individual animals, 50 mg/kg): 21 g (6×) and 22 g and 23 g
Animal Weight ([2]; LUAD-0057AS1 PDX, 50 mg/kg QD, treatment day 7, individual animals, 50 mg/kg): 21 g (3×) and 23 g and 22 g (3×) and 20 g
Animal Weight ([2]; LUAD-0057AS1 PDX, 50 mg/kg QD, treatment day 10, individual animals, 50 mg/kg): 20 g (2×) and 22 g (2×) and 21 g (4×)
Animal Weight ([2]; LUAD-0057AS1 PDX, 50 mg/kg QD, treatment day 14, individual animals, 50 mg/kg): 20 g (2×) and 21 g (6×)
Animal Weight ([2]; LUAD-0057AS1 PDX, 50 mg/kg QD, treatment day 19, individual animals, 50 mg/kg): 20 g (4×) and 19 g (2×) and 21 g (2×)
Animal Weight ([2]; LUAD-0057AS1 PDX, 50 mg/kg QD, treatment day 23, individual animals, 50 mg/kg): 19 g and 20 g
Animal Weight ([2]; NIH-3T3-CCDC6::RET xenografts, 100 mg/kg QD, day 0, 100 mg/kg): 22 g and 26 g and 24 g and 21 g and 20 g
Animal Weight ([2]; NIH-3T3-CCDC6::RET xenografts, 100 mg/kg QD, day 2, 100 mg/kg): 22 g and 23 g and 21 g and 19 g
Animal Weight ([2]; NIH-3T3-CCDC6::RET xenografts, 100 mg/kg QD, day 5, 100 mg/kg): 22 g and 26 g and 24 g and 20 g
Animal Weight ([2]; NIH-3T3-CCDC6::RET xenografts, 100 mg/kg QD, day 8, 100 mg/kg): 22 g and 25 g and 23 g and 21 g and 19 g
